Like-named read-outs stand apart in the source and are kept apart here.
Experiments:
[1] = Log P by HPLC on reversed phase columns (EEC directive 79/831 Annex V.A8); assay type: physicochemical; conditions: LC-UV
Experimental: Measurement of Log P values was performed according to EEC directive 79/831 Annex V.A8 by HPLC (High Performance Liquid Chromatography) on reversed phase columns with the following methods: • ^[a] Log P value is determined by measurement of LC-UV, in an acidic range, with 0.1% formic acid in water and acetonitrile as eluent (linear gradient from 10% acetonitrile to 95% acetonitrile). • [b] Log P value is determined by measurement of LC-UV, in a neutral range, with 0.001 molar ammonium acetate solution in water and acetonitrile as eluent (linear gradient from 10% acetonitrile to 95% acetonitrile). […] Lambda-max-values were determined using UV-spectra from 200 nm to 400 nm and the peak values of the chromatographic signals.

[2] = Hydrolysis stability test in homogeneous aqueous solution; assay type: physicochemical; conditions: 50° C., 24 hours, first order degradation assumed
Experimental: The chemical stability towards hydrolysis of the phenylamidines described in the prior art is good but an improved stability may be an advantage during the preparation and formulation processes in a large scale. The improved stability towards hydrolysis was proven by a hydrolysis stability test as described below: To produce a suitable preparation of active compound for the hydrolysis stability test, a 1000 ppm stock solution (1 mg/mL) of active compound in acetonitrile is prepared. Three aliquots of 100 μL are pipetted into HPLC vials and diluted with 750 μL acetonitrile. In each vial 850 μL of the appropriate buffer solution (pH4, pH7 and pH9, CertiPUR, Fa. Merck) is added. The buffer containing HPLC vials are incubated in a heated sample tray at 50° C. for 24 hours. The amount A of the active compound is analyzed by HPLC (UV-peak areas at 210 nm) at eight points in time t: 0 min, 140 min, 350 min, 560 min, 770 min, 980 min, 1190 min, 1400 min. The half-life time (T1/2) of each active compound is calculated via linear regression by using the following equations (first order degradation assumed): In table III the results of the hydrolysis stability test are shown for the compounds (I-01), (I-02), (I-03), (I-04) and (I-05) at various pH-values. […] 337 known from WO2008/110278. […] This increased stability will be of advantage during the preparation and formulation processes in a large scale compared to known amidines. The data are to be seen merely by way of example and are not limiting for the purposes of the invention.

[3] = Photolysis stability test; assay type: physicochemical; conditions: dried film in MTP, irradiated at 30° C. and 480 W/m^2, up to 24 h, first order degradation assumed
Experimental: The stability towards photolysis of the phenylamidines described in the prior art is good but an improved stability towards photolysis may be an advantage as it could offer a longer lasting efficacy when applied to plants by foliar application. The improved stability towards photolysis was proven by a […] stability test as described below:
To produce a suitable preparation of active compound for the photolysis stability test, a 1000 ppm stock solution (1 mg/mL) of active compound in acetonitrile is prepared. Aliquots of 25 μL of this stock solution are pipetted in three wells of a Bio-one microtiter plate (MTP) UVStar 96 (Fa. Greiner, Art. No. 655801). The MTP is dried overnight in the dark and then irradiated at 30° C. and 480 W/m^2 with a UV irradiation device SUNTEST XLS+ or SUNTEST CPS (Fa. Atlas). The amount A of the active compound is analyzed by HPLC (UV-peak areas at 210 nm) at five points in time t: 0 h, 2 h, 4 h, 6 h, 24 h by using the following method: 200 μL acetonitrile is added in the respective well of the MTP and the MTP is sealed with a Bio-one sealing foil, viewseal 80/140 mm (Fa. Greiner, Art. No. 676070). The MTPs are sonicated for 3 minutes and analysed by HPLC. The half-life time (T1/2) of each active compound is calculated via linear regression by using the following equations (first order degradation assumed): […]
In table IV the results of the photolysis stability test are shown for the compounds (I-01) and (I-02). […] This increased chemical stability towards photolysis will be of advantage as it will offer a longer lasting efficacy when applied to plants by foliar application compared to known amidines. The data are to be seen merely by way of example and are not limiting for the purposes of the invention.

soy bean plants = experiment: Plant compatibility test using soy bean plants; assay type: in vivo; conditions: soy bean young plants sprayed at 1000 ppm, evaluated 6 days after application; 0% no damages, 100% totally damaged
Experimental: Plant Compatibility Test Using Soy Bean Plants • Solvent: 24.5 parts by weight of acetone • 24.5 parts by weight of dimethylacetamide • Emulsifier: 1 part by weight of alkylaryl polyglycol ether To produce a suitable preparation of active compound, 1 part by weight of active compound is mixed with the stated amounts of solvent and emulsifier, and the concentrate is diluted with water to the desired concentration. Young plants are sprayed with the preparation of active compound at the stated application rate. The plants are then placed in a greenhouse at approximately 21° C. and a relative atmospheric humidity of approximately 80%. The test is evaluated 6 days after application and comprises plant damages like leaf deformation, chlorosis, necrosis, shoot damage or stunting. The results are summarized in table V. 0% means no damages are observed, while 100% means that the plants are totally damaged.

Phakopsora pachyrhizi = experiment: In vivo preventive test on Phakopsora (soybeans); conditions: 7 days after inoculation
Experimental: To produce a suitable preparation of active compound, 1 part by weight of active compound is mixed with the stated amounts of solvent and emulsifier, and the concentrate is diluted with water to the desired concentration. To test for preventive activity, young plants are sprayed with the preparation of active compound at the stated rate of application. After the spray coating has dried on, the plants are inoculated with an aqueous spore suspension of the causal agent of soybean rust (Phakopsora pachyrhizi) and stay for 24 h without light in an incubation cabinet at approximately 24° C. and a relative atmospheric humidity of 95%. The plants remain in the incubation cabinet at approximately 24° C. and a relative atmospheric humidity of approximately 80% and a day/night interval of 12 h.

Puccinia recondita = experiment: In vivo preventive test on Puccinia recondita (brown rust on wheat); conditions: 500 ppm of active ingredient, 11 days after inoculation
Experimental: (§1) • Solvent: 5% by volume of Dimethyl sulfoxide • 10% by volume of Acetone • Emulsifier: 1 μl of Tween® 80 per mg of active ingredient
(§2) The active ingredients are made soluble and homogenized in a mixture of Dimethyl sulfoxide/Acetone//Tween® 80 and then diluted in water to the desired concentration.
(§3) The young plants of wheat are treated by spraying the active ingredient prepared as described above. Control plants are treated only with an aqueous solution of Acetone/Dimethyl sulfoxide/Tween® 80.
After 24 hours, the plants are contaminated by spraying the leaves with an aqueous suspension of Puccinia recondita spores. The contaminated wheat plants are incubated for 24 hours at 20° C. and at 100% relative humidity and then for 10 days at 20° C. and at 70-80% relative humidity.
The test is evaluated 11 days after the inoculation. 0% means an efficacy which corresponds to that of the control plants while an efficacy of 100% means that no disease is observed.

Pyrenophora teres = experiment: In vivo preventive test on Pyrenophora teres (net blotch on barley); conditions: 500 ppm of active ingredient, 14 days after inoculation
Experimental: as §1, §2
The young plants of barley are treated by spraying the active ingredient prepared as described above. Control plants are treated only with an aqueous solution of Acetone/Dimethyl sulfoxide/Tween® 80.
After 24 hours, the plants are contaminated by spraying the leaves with an aqueous suspension of Pyrenophora teres spores. The contaminated barley plants are incubated for 48 hours at 20° C. and at 100% relative humidity and then for 12 days at 20° C. and at 70-80% relative humidity.
The test is evaluated 14 days after the inoculation. 0% means an efficacy which corresponds to that of the control plants while an efficacy of 100% means that no disease is observed.

Septoria tritici = experiment: In vivo preventive test on Septoria tritici (leaf spot on wheat); conditions: 500 ppm of active ingredient, 24 days after inoculation
Experimental: as §1, §2, §3
After 24 hours, the plants are contaminated by spraying the leaves with an aqueous suspension of Septoria tritici spores. The contaminated wheat plants are incubated for 72 hours at 18° C. and at 100% relative humidity and then for 21 days at 20° C. and at 90% relative humidity.
The test is evaluated 24 days after the inoculation. 0% means an efficacy which corresponds to that of the control plants while an efficacy of 100% means that no disease is observed.

[4] = acidic range, 0.1% formic acid in water and acetonitrile as eluent, read-out: LogP [a]
[5] = buffer pH 7/acetonitrile, read-out: T1/2 (pH 7) (converted)
[6] = buffer pH 9/acetonitrile, read-out: T1/2 (pH 9) (converted)
[7] = neutral range, 0.001 molar ammonium acetate solution in water and acetonitrile as eluent, read-out: LogP [b]

SMILES: Cc1cc(Oc2ccccc2Br)c(C(F)(F)F)cc1[N+](=O)[O-] [VI-05, 1-(2-bromophenoxy)-5-methyl-4-nitro-2-(trifluoromethyl)benzene]
- chromatographic logP [1, 4]: 4.64

SMILES: CCN(C)/C=N/c1cc(C)c(Oc2ccccc2)cc1C [Compound no. 1 known from WO2008/110313, reference compound]
- half-life at 58.8 µg/mL [2, 5]: 24 h
- half-life at 58.8 µg/mL [2, 6]: 16 h
- half-life [3]: 10 h
- Necrosis in % (soy bean plants): 90%

SMILES: CCN(C)C=Nc1cc(Cl)c(Oc2ccccc2Br)cc1C [Example I-02, N′-[4-(2-bromophenoxy)-5-chloro-2-methylphenyl]-N-ethyl-N-methylimidoformamide]
- chromatographic logP [1, 4]: 1.86
- chromatographic logP [1, 7]: 5.13
- half-life at 58.8 µg/mL [2, 5]: 70 h
- half-life at 58.8 µg/mL [2, 6]: 64 h
- half-life [3]: > 200 h
- efficacy (Phakopsora pachyrhizi; 10 ppm of active ingredient): at least 70%
- efficacy (Puccinia recondita): at least 70%
- efficacy (Pyrenophora teres): at least 70%
- efficacy (Septoria tritici): at least 70%

SMILES: Cc1cc(Oc2ccccc2Br)c(C(F)(F)F)cc1N [VIII-05, 4-(2-bromophenoxy)-2-methyl-5-(trifluoromethyl) aniline]
- chromatographic logP [1, 4]: 3.68

SMILES: CCN(C)/C=N/c1cc(Cl)c(Oc2ccccc2F)cc1C [Example I-01, N′-[5-chloro-4-(2-fluorophenoxy)-2-methylphenyl]-N-ethyl-N-methylimidoformamide]
- chromatographic logP [1, 4]: 1.64
- chromatographic logP [1, 7]: 4.56
- half-life at 58.8 µg/mL [2, 5]: 67 h
- half-life at 58.8 µg/mL [2, 6]: 60 h
- half-life [3]: 32 h
- Necrosis in % (soy bean plants): 50%
- efficacy (Phakopsora pachyrhizi; 100 ppm of active ingredient): at least 70%

SMILES: Cc1cc(Oc2ccccc2Cl)c(Cl)cc1N [VIII-03, 5-chloro-4-(2-chlorophenoxy)-2-methylaniline]
- chromatographic logP [1, 4]: 3.37

SMILES: CCN(C)C=Nc1cc(Cl)c(Oc2ccccc2I)cc1C [Example I-06, N′-[5-chloro-4-(2-iodophenoxy)-2-methylphenyl]-N-ethyl-N-methylimidoformamide]
- chromatographic logP [1, 4]: 1.81
- half-life at 58.8 µg/mL [2, 5]: 61 h
- half-life at 58.8 µg/mL [2, 6]: 55 h
- half-life [3]: 34 h

SMILES: CCN(C)C=Nc1cc(C(F)(F)F)c(Oc2ccccc2Br)cc1C [Example I-05, N′-[4-(2-bromophenoxy)-2-methyl-5-(trifluoromethyl)phenyl]-N-ethyl-N-methylimidoformamide]
- chromatographic logP [1, 4]: 1.9
- half-life at 58.8 µg/mL [2, 5]: 80 h
- half-life at 58.8 µg/mL [2, 6]: 66 h
- half-life [3]: > 200 h

SMILES: CCN(C)C=Nc1cc(C(F)(F)F)c(Oc2ccccc2F)cc1C [Example I-04, N-ethyl-N′-[4-(2-fluorophenoxy)-2-methyl-5-(trifluoromethyl)phenyl]-N-methylimidoformamide]
- chromatographic logP [1, 4]: 1.72
- half-life at 58.8 µg/mL [2, 5]: 83 h
- half-life at 58.8 µg/mL [2, 6]: 74 h
- half-life [3]: > 200 h

SMILES: Cc1cc(Oc2ccccc2Cl)c(Cl)cc1[N+](=O)[O-] [VI-03, 1-chloro-2-(2-chlorophenoxy)-4-methyl-5-nitrobenzene]
- chromatographic logP [1, 4]: 4.51

SMILES: CCN(C)C=Nc1cc(Cl)c(Oc2ccccc2Cl)cc1C [Example I-03, N′-[5-chloro-4-(2-chlorophenoxy)-2-methylphenyl]-N-ethyl-N-methylimidoformamide]
- chromatographic logP [1, 4]: 1.55
- half-life at 58.8 µg/mL [2, 5]: 63 h
- half-life at 58.8 µg/mL [2, 6]: 53 h
- half-life [3]: 59 h

SMILES: CCN(C)/C=N/c1cc(C)c(Oc2ccccc2F)cc1C [reference compound]
- half-life at 58.8 µg/mL [2, 5]: 25 h
- half-life at 58.8 µg/mL [2, 6]: 17 h
- Necrosis in % (soy bean plants): 90%

From patent US10252977B2, “Halogen-substituted phenoxyphenylamidines and the use thereof as fungicides” (priority 2015, dated 2019)
